Experiments:
Mus musculus [1] = assay: Anticonvulsive activity in pentylenetetrazole-induced seizure albino mouse model assessed as latecy time at 100 mg/kg, ig administered 30 mins prior to pentylenetetrazole challenge and mesured for 60 mins (reference value: 5.79 +/- 0.58 min); type: functional
[2] = Toxicity in albino mouse assessed as motor coordination impairment by measuring animal fall-off from rod before 2 mins at 100 mg/kg, ig administered 30 mins prior to test by rotarod test (reference value: 33%); type: organism-based; conditions: in vivo, po
Mus musculus [3] = assay: Anticonvulsive activity in pentylenetetrazole-induced seizure albino mouse model assessed as duration time of convulsion period at 100 mg/kg, ig administered 30 mins prior to pentylenetetrazole challenge and mesured for 60 mins (reference value: 12 +/- 1.34 min); type: functional
[4] = Toxicity in albino mouse assessed as motor coordination impairment by measuring animal fall-off from rod before 1 min at 100 mg/kg, ig administered 30 mins prior to test by rotarod test (reference value: 17%); type: organism-based; conditions: in vivo, po
[5] = Toxicity in albino mouse assessed as motor coordination impairment by measuring animal fall-off from rod before 5 mins at 100 mg/kg, ig administered 30 mins prior to test by rotarod test (reference value: 50%); type: organism-based; conditions: in vivo, po
Mus musculus [6] = assay: Anticonvulsive activity in pentylenetetrazole-induced seizure albino mouse model assessed as proportion of animals with clonic convulsion at 100 mg/kg, ig administered 30 mins prior to pentylenetetrazole challenge and mesured for 60 mins (reference value: 100 %); type: functional
Mus musculus [7] = assay: Anticonvulsive activity in pentylenetetrazole-induced seizure albino mouse model assessed as proportion of animals with tonic convulsion at 100 mg/kg, ig administered 30 mins prior to pentylenetetrazole challenge and mesured for 60 mins (reference value: 100%); type: functional
[8] = Toxicity in albino mouse assessed as motor coordination impairment by measuring animal fall-off from rod before 3 mins at 100 mg/kg, ig administered 30 mins prior to test by rotarod test (reference value: 33%); type: organism-based; conditions: in vivo, po, 0.05 h
Mus musculus [9] = assay: Anticonvulsive activity in albino mouse assessed as protection against pentylenetetrazole-induced seizure by measuring severity of convulsion at 100 mg/kg, ig administered 30 mins prior to pentylenetetrazole challenge and mesured for 60 mins (reference value: 5.83 +/- 0.17); type: functional
Mus musculus [10] = assay: Anticonvulsive activity in pentylenetetrazole-induced seizure albino mouse model assessed as lifetime of animal to death at 100 mg/kg, ig administered 30 mins prior to pentylenetetrazole challenge and mesured for 60 mins (reference value: 17.45 +/- 1.85 min); type: functional
Mus musculus [11] = assay: Anticonvulsive activity in pentylenetetrazole-induced seizure albino mouse model assessed as lethality at 100 mg/kg, ig administered 30 mins prior to pentylenetetrazole challenge and mesured for 60 mins (reference value: 91.7%); type: functional
Mus musculus [12] = assay: Anticonvulsive activity in pentylenetetrazole-induced seizure albino mouse model assessed as number of clonic and tonic convulsion at 100 mg/kg, ig administered 30 mins prior to pentylenetetrazole challenge and mesured per animal for 60 mins (reference value: 3.58 +/- 0.42); type: functional
Mus musculus [13] = assay: Anticonvulsive activity in pentylenetetrazole-induced seizure albino mouse model assessed as decrease in time of death at 100 mg/kg, ig administered 30 mins prior to pentylenetetrazole challenge and mesured for 60 mins relative to control; type: functional
[14] = Acute toxicity in albino mouse assessed as blepharoptosis at 1000 to 5000 mg/kg, ig measured for 14 days; type: organism-based; conditions: in vivo, po, 336 h
Mus musculus [15] = assay: Anticonvulsive activity in pentylenetetrazole-induced seizure albino mouse model assessed as lengthened latecy of convulsion at 100 mg/kg, ig administered 30 mins prior to pentylenetetrazole challenge and mesured for 60 mins relative to control; type: functional
[16] = Acute toxicity in albino mouse assessed as diarrhoea at 1000 to 5000 mg/kg, ig measured for 14 days; type: organism-based; conditions: in vivo, po, 336 h
Mus musculus [17] = assay: Anticonvulsive activity in pentylenetetrazole-induced seizure albino mouse model assessed as decrease in severity of convulsion at 100 mg/kg, ig administered 30 mins prior to pentylenetetrazole challenge and mesured for 60 mins relative to control; type: functional
[18] = Acute toxicity in albino mouse assessed as decrease in motor activity at 3000 to 5000 mg/kg, ig measured after 30 mins to 1 hr; type: organism-based; conditions: in vivo, po
[19] = Acute toxicity in albino mouse assessed as death at 1000 to 5000 mg/kg, ig measured for 14 days; type: organism-based; conditions: in vivo, po, 336 h
[20] = Acute toxicity in albino mouse assessed as effect on skeletal muscle tone at 1000 to 5000 mg/kg, ig measured for 14 days; type: organism-based; conditions: in vivo, po, 336 h
[21] = Acute toxicity in albino mouse assessed as effect on muscle movement at 1000 to 5000 mg/kg, ig measured for 14 days; type: organism-based; conditions: in vivo, po, 336 h
Mus musculus [22] = assay: Anticonvulsive activity in pentylenetetrazole-induced seizure albino mouse model assessed as decrease in duration of convulsive period at 100 mg/kg, ig administered 30 mins prior to pentylenetetrazole challenge and mesured for 60 mins relative to control; type: functional
[23] = Acute toxicity in albino mouse assessed as hypersalivation at 1000 to 5000 mg/kg, ig measured for 14 days; type: organism-based; conditions: in vivo, po, 336 h
[24] = Acute toxicity in ig dosed albino mouse measured for 14 days; type: organism-based; conditions: in vivo, po
[25] = Acute toxicity in albino mouse assessed as lateral position at 1000 to 5000 mg/kg, ig measured for 14 days; type: organism-based; conditions: in vivo, po, 336 h
[26] = Toxicity in albino mouse assessed as motor coordination impairment by measuring animal fall-off from rod before 2 mins at 300 mg/kg, ig administered 30 mins prior to test by rotarod test (reference value: 33%); type: organism-based; conditions: in vivo, po
Mus musculus [27] = assay: Anticonvulsive activity in albino mouse assessed as protection against pentylenetetrazole-induced seizure by measuring severity of convulsion at 300 mg/kg, ig administered 30 mins prior to pentylenetetrazole challenge and mesured for 60 mins (reference value: 5.83 +/- 0.17); type: functional
Mus musculus [28] = assay: Anticonvulsive activity in pentylenetetrazole-induced seizure albino mouse model assessed as lethality at 300 mg/kg, ig administered 30 mins prior to pentylenetetrazole challenge and mesured for 60 mins (reference value: 91.7%); type: functional
[29] = Toxicity in albino mouse assessed as motor coordination impairment by measuring animal fall-off from rod before 3 mins at 300 mg/kg, ig administered 30 mins prior to test by rotarod test (reference value: 33%); type: organism-based; conditions: in vivo, po, 0.05 h
Mus musculus [30] = assay: Anticonvulsive activity in pentylenetetrazole-induced seizure albino mouse model assessed as lifetime of animal to death at 300 mg/kg, ig administered 30 mins prior to pentylenetetrazole challenge and mesured for 60 mins (reference value: 17.45 +/- 1.85 min); type: functional
Mus musculus [31] = assay: Anticonvulsive activity in pentylenetetrazole-induced seizure albino mouse model assessed as latency time at 300 mg/kg, ig administered 30 mins prior to pentylenetetrazole challenge and mesured for 60 mins (reference value: 5.79 +/- 0.58 min); type: functional
[32] = Toxicity in albino mouse assessed as motor coordination impairment by measuring animal fall-off from rod before 1 min at 300 mg/kg, ig administered 30 mins prior to test by rotarod test (reference value: 17%); type: organism-based; conditions: in vivo, po
[33] = Toxicity in albino mouse assessed as motor coordination impairment by measuring animal fall-off from rod before 5 mins at 300 mg/kg, ig administered 30 mins prior to test by rotarod test (reference value: 50%); type: organism-based; conditions: in vivo, po
Mus musculus [34] = assay: Anticonvulsive activity in pentylenetetrazole-induced seizure albino mouse model assessed as proportion of animals with tonic convulsion at 300 mg/kg, ig administered 30 mins prior to pentylenetetrazole challenge and mesured for 60 mins (reference value: 100%); type: functional
Mus musculus [35] = assay: Anticonvulsive activity in pentylenetetrazole-induced seizure albino mouse model assessed as proportion of animals with clonic convulsion at 300 mg/kg, ig administered 30 mins prior to pentylenetetrazole challenge and mesured for 60 mins (reference value: 100 %); type: functional
Mus musculus [36] = assay: Anticonvulsive activity in pentylenetetrazole-induced seizure albino mouse model assessed as number of clonic and tonic convulsion at 300 mg/kg, ig administered 30 mins prior to pentylenetetrazole challenge and mesured per animal for 60 mins (reference value: 3.58 +/- 0.42); type: functional
Mus musculus [37] = assay: Anticonvulsive activity in pentylenetetrazole-induced seizure albino mouse model assessed as duration time of convulsion period at 300 mg/kg, ig administered 30 mins prior to pentylenetetrazole challenge and mesured for 60 mins (reference value: 12 +/- 1.34 min); type: functional

Compound	Time (Mus musculus [1])	Activity [2]	Time (Mus musculus [3])	Activity [4]	Activity [5]	Activity (Mus musculus [6])	Activity (Mus musculus [7])	Activity [8]	Activity (Mus musculus [9])	Time (Mus musculus [10])	Activity (Mus musculus [11])	Activity (Mus musculus [12])	further results
O=C(Cn1c(=O)[nH]c2ccccc2c1=O)NCCc1ccccc1	11.43 min	50%	9.98 min	33%	67%	100%	100%	50%	5.6	17.79 min	80%	1.8	–
O=C(Cn1c(=O)[nH]c2ccccc2c1=O)NCCCc1ccccc1	15.51 min	33%	3.05 min	17%	50%	80%	80%	50%	4	12.16 min	40%	1.2	–
COc1ccccc1CNC(=O)Cn1c(=O)[nH]c2ccccc2c1=O	15.14 min	67%	7.25 min	50%	83%	80%	80%	67%	4.4	12.45 min	60%	2.4	–
O=C(Cn1c(=O)[nH]c2ccccc2c1=O)Nc1ccccc1	10.57 min	33%	1.24 min	17%	67%	100%	55.5%	50%	4.22	7.14 min	33.3%	1.22	–
CCCNC(=O)Cn1c(=O)[nH]c2ccccc2c1=O	7.5 min	50%	2.2 min	33%	50%	100%	100%	50%	5	6.89 min	40%	1.4	–
O=C(Cn1c(=O)[nH]c2ccccc2c1=O)NCc1ccc(Cl)cc1	4.82 min	67%	4.54 min	50%	83%	100%	100%	67%	6	9.36 min	–	2	fold change (FC) (Mus musculus [13]): 1.9
C=CCNC(=O)Cn1c(=O)[nH]c2ccccc2c1=O	6.6 min	50%	9.8 min	33%	67%	100%	80%	50%	5	16.95 min	60%	2.2	–
O=C(Cn1c(=O)[nH]c2ccccc2c1=O)NC1CCCCC1	3.8 min	33%	13.11 min	17%	50%	100%	100%	50%	5.6	11.53 min	80%	3.2	–
O=C(Cn1c(=O)[nH]c2ccccc2c1=O)NCc1ccccc1	4.96 min	33%	14.05 min	17%	50%	100%	100%	50%	5.6	17.5 min	80%	3	–
O=C(Cn1c(=O)[nH]c2ccccc2c1=O)NCc1ccc(Cl)cc1Cl	20.38 min	50%	0.45 min	17%	67%	80%	40%	50%	2.8	–	0%	1	Activity [14]: Non-Toxic; fold change (FC) (Mus musculus [15]): 3.5; Activity [16]: Non-Toxic; fold change (FC) (Mus musculus [17]): 2.1; Activity [18]: Toxic; Activity [19]: Non-Toxic; Activity [20]: Non-Toxic; Activity [21]: Non-Toxic; fold change (FC) (Mus musculus [22]): 26.7; Activity [23]: Non-Toxic; LD50 at 336 h [24]: > 5000 mg/kg; Activity [25]: Non-Toxic
CCCC(CCC)C(=O)[O-].[Na+] [VALPROATE SODIUM]	–	–	–	–	–	–	–	–	–	–	–	–	Activity [26]: 67%; Activity (Mus musculus [27]): 2.83; Activity (Mus musculus [28]): 16.7%; Activity [29]: 83%; Time (Mus musculus [30]): 20.9 min; Time (Mus musculus [31]): 26.65 min; Activity [32]: 50%; Activity [33]: 100%; Activity (Mus musculus [34]): 50%; Activity (Mus musculus [35]): 66.7%; Activity (Mus musculus [36]): 2; Time (Mus musculus [37]): 7.64 min

From ChEMBL document CHEMBL4359850, “Synthesis, in vivo and in silico anticonvulsant activity studies of new derivatives of 2-(2,4-dioxo-1,4-dihydroquinazolin-3(2H)-yl)acetamide” (Eur J Med Chem, 2019)
